Test results taken from patent US9758484B2 (Asieris Pharmaceutical Technologies Co., Ltd., priority 2013, dated 2017).
Values joined by “and” are separate entries in the source; they are usually repeats but may differ in a detail not shown here. Equal values may be shown once. Where a name gives a salt, the structure may show the parent alone. Read-outs that look alike come from different tables or passages of the source. Each block holds one molecule with its values, some of them ahead of it.

Columns and labels:
[1] = Solubility tests of nitroxoline and nitroxoline salts in aqueous buffers and water; assay type: physicochemical; details: for solubility at 30 min: thermodynamic from solid; for solubility at a physiologically relevant pH: pH of 4.5 to 8, in contrast to nitroxoline and acid addition salts
Method: 1) Aqueous buffer solutions with varying pH were prepared as follows: • i. Water: distilled water; • ii. pH=1.2 buffer: 7.65 mL 36.5% HCl solution was diluted to 1000 mL with water; • iii. pH=4.5 buffer: 18 g sodium acetate and 9.8 mL acetic acid were diluted to 1000 mL with water; • iv. pH=5.0 buffer: sodium hydroxide was added to 0.2 mol/L monosodium phosphate (NaH2PO4) solution until the pH was adjusted to 5.0; • v. pH=6.0 buffer: 18 g sodium acetate were added into 20 mL acetic acid solution (1 M), and the mixture was diluted to 500 mL with water; • vi. pH=6.8 buffer: 250 mL of 0.2 M monopotassium phosphate (KH2PO4) solution were added to 118 mL of 0.2 M sodium hydroxide solution, and the mixture was diluted to 1000 mL with water; • vii. pH=7.4 buffer: 1.36 g monopotassium phosphate (KH2PO4) were added to 79 mL of 0.1 M sodium hydroxide solution, and the mixture was diluted to 200 mL with water; and • viii pH=8.0 buffer: 5.59 g potassium biphosphate (K2HPO4) and 0.41 g monopotassium. phosphate (KH2PO4) were added to 1000 mL water and mixed.
2) Solubility tests were performed generally as follows:
Under a temperature of 25±2° C., 10 mg of each salt sample was weighed and added to a 100 mL volumetric bottle. 0.25 mL buffer was added to the bottle, which was shaken vigorously for 30 seconds every 5 min.
If the sample was not completely dissolved, 0.7 mL of the same buffer was added, and dissolution was observed by the same shaking procedure.
If the sample was not completely dissolved, 8.5 mL of the same buffer was added, and dissolution was observed by the same shaking procedure.
If the sample was not completely dissolved, 85 mL of the same buffer was added, and dissolution was observed by the same shaking procedure.

[2] = In vivo urinary excretion of nitroxoline and nitroxoline salts in mice; set-up: species or system CD-1 ICR mice
Method: Urine samples were collected in the following periods of time: 0-2, 2-6, 6-24 h. Due to the small volume of the urine from mice, the collecting system in the cage was washed with water at each collecting time. Urine samples and their wash samples were analyzed according to the same methods used in the beagle dog study (Example 24).
(§1) The same study was repeated with APL-1092, nitroxoline lysine salt.

[3] = In vivo urinary excretion of nitroxoline and nitroxoline salts in beagle dogs
Method: Urine samples were collected in the following periods of time: 0-2, 2-4, 4-6, 6-8, 8-24 h. Urine samples were analyzed by LC/MS/MS method utilizing an Agilent 1100 HPLC system with a CTC auto-sampler, an AB API4000 mass spectrometer, and a column of ACQUITY UPLC BEH C18 (2.1*50 mm) Dexamethasone was used as an internal standard. […] The range of linearity was determined to be 25˜5000 ng/mL.
as §1

[4] = distilled water, 25 °C, water, distilled water, 25±2° C., read-out: Solubility water
[5] = pH 1.2 buffer (dilute HCl), 25 °C, pH 1.2, simulated gastric fluid, pH=1.2 buffer, 25±2° C., read-out: Solubility pH 1.2
[6] = pH 4.5 acetate buffer, 25 °C, pH 4.5, aqueous buffer, pH=4.5 buffer, 25±2° C., read-out: Solubility pH 4.5
[7] = pH 5.0 phosphate buffer, 25 °C, pH 5, aqueous buffer, pH=5.0 buffer, 25±2° C., read-out: Solubility pH 5
[8] = pH 6.0 acetate buffer, 25 °C, pH 6, aqueous buffer, pH=6.0 buffer, 25±2° C., read-out: Solubility pH 6
[9] = pH 6.8 phosphate buffer, 25 °C, pH 6.8, aqueous buffer, pH=6.8 buffer, 25±2° C., read-out: Solubility pH 6.8
[10] = pH 7.4 phosphate buffer, 25 °C, pH 7.4, aqueous buffer, buffer headed 'pH .4', 25±2° C., read-out: Solubility pH .4
[11] = pH 8.0 phosphate buffer, 25 °C, pH 8, aqueous buffer, pH=8.0 buffer, 25±2° C., read-out: Solubility pH 8.0

Structure (SMILES): Cl.O=[N+]([O-])c1ccc(O)c2ncccc12 [APL-1071, Nitroxoline HCl Salt]
- solubility at 30 min ([1]; aqueous buffers pH 1.2 to 8, 25 °C, pH 1.2, aqueous buffer, all pHs tested, from pH 1.2 to 8, read-out: solubility at all pHs tested): < 100 µg/mL
- solubility at 30 min [1, 4]: < 100 µg/mL
- solubility at 30 min [1, 5]: < 100 µg/mL
- solubility at 30 min [1, 6]: < 100 µg/mL
- solubility at 30 min [1, 7]: < 100 µg/mL
- solubility at 30 min [1, 8]: < 100 µg/mL
- solubility at 30 min [1, 9]: < 100 µg/mL
- solubility at 30 min [1, 10]: < 100 µg/mL
- solubility at 30 min [1, 11]: < 100 µg/mL

Structure (SMILES): Br.O=[N+]([O-])c1ccc(O)c2ncccc12 [APL-1074, Nitroxoline HBr Salt]
- solubility at 30 min [1, 4]: < 100 µg/mL
- solubility at 30 min [1, 5]: 1000 to 10000 µg/mL
- solubility at 30 min [1, 6]: < 100 µg/mL
- solubility at 30 min [1, 7]: < 100 µg/mL
- solubility at 30 min [1, 8]: < 100 µg/mL
- solubility at 30 min [1, 9]: < 100 µg/mL
- solubility at 30 min [1, 10]: < 100 µg/mL
- solubility at 30 min [1, 11]: < 100 µg/mL

Structure (SMILES): O=[N+]([O-])c1ccc(O)c2ncccc12 [APL-1075, Nitroxoline HNO3 Salt]
- solubility at 30 min [1, 6]: < 100 µg/mL
- solubility at 30 min [1, 7]: < 100 µg/mL
- solubility at 30 min [1, 8]: < 100 µg/mL
- solubility at 30 min [1, 9]: < 100 µg/mL

Further lines, with some results ahead:

- solubility at 30 min [1, 4]: 1000 to 10000 µg/mL
- solubility at 30 min [1, 5]: < 100 µg/mL
- solubility at 30 min [1, 6]: < 100 µg/mL
- solubility at 30 min [1, 7]: < 100 µg/mL
- solubility at 30 min [1, 8]: < 100 µg/mL
- solubility at 30 min [1, 9]: < 100 µg/mL
- solubility at 30 min [1, 10]: < 100 µg/mL
- solubility at 30 min [1, 11]: < 100 µg/mL
- solubility at a physiologically relevant pH [1]: significantly improved solubility
Structure (SMILES): O=[N+]([O-])c1ccc([O-])c2ncccc12.[Na+] [APL-1072, Nitroxoline Sodium Salt]

- solubility at 30 min [1, 4]: 1000 to 10000 µg/mL
- solubility at 30 min [1, 5]: < 100 µg/mL
- solubility at 30 min [1, 6]: < 100 µg/mL
- solubility at 30 min [1, 7]: < 100 µg/mL
- solubility at 30 min [1, 8]: < 100 µg/mL
- solubility at 30 min [1, 9]: < 100 µg/mL
- solubility at 30 min [1, 10]: < 100 µg/mL
- solubility at 30 min [1, 11]: 1000 to 10000 µg/mL
- solubility at a physiologically relevant pH [1]: significantly improved solubility
Structure (SMILES): O=[N+]([O-])c1ccc([O-])c2ncccc12.[K+] [APL-1077, Nitroxoline Potassium Salt]

- 24-Hr Accumulated drug in the urine ([2]; In Mice, 41.8 mg/Kg APL-1202 or equivalent dose, 41.8 mg/kg): 139 µg
- Total mass of nitroxoline in urine and wash, Mean ([2]; mean of mice, oral, equivalent of 41.8 mg/Kg nitroxoline, 0-24 hr, 41.8 mg/kg): 122573 ng
- f (%): percentage of total mass of excreted drug versus the dose amount, Mean ([2]; mean of mice, oral, equivalent of 41.8 mg/Kg nitroxoline, 41.8 mg/kg): 22.3%
- Mass of nitroxoline, 0~2 wash, Mean ([2]; mean of mice, oral, equivalent of 41.8 mg/Kg nitroxoline, cage wash 0~2 hr, 41.8 mg/kg): 40921 ng
- Mass of nitroxoline, 2~6 wash, Mean ([2]; mean of mice, oral, equivalent of 41.8 mg/Kg nitroxoline, cage wash 2~6 hr, 41.8 mg/kg): 4888 ng
- Mass of nitroxoline, 6~24 wash, Mean ([2]; mean of mice, oral, equivalent of 41.8 mg/Kg nitroxoline, cage wash 6~24 hr, 41.8 mg/kg): 234 ng
- Mass of nitroxoline in urine, 0-2 hr, Mean ([2]; mean of mice, oral, equivalent of 41.8 mg/Kg nitroxoline, urine 0-2 hr, 41.8 mg/kg): 71062 ng
- Mass of nitroxoline in urine, 2-6 hr, Mean ([2]; mean of mice, oral, equivalent of 41.8 mg/Kg nitroxoline, urine 2-6 hr, 41.8 mg/kg): 5410 ng
- Mass of nitroxoline in urine, 6-24 hr, Mean ([2]; mean of mice, oral, equivalent of 41.8 mg/Kg nitroxoline, urine 6-24 hr, 41.8 mg/kg): 58.8 ng
- increase of drug excretion in the urine as compared to nitroxoline ([2]; mice, dosed at the equivalent amount of nitroxoline in moles): approximately two times greater
- 24-Hr Accumulated drug in the urine ([3]; In Dogs, 75 mg APL-1202 or equivalent amount): 617 µg
- increase in drug excretion in the urine as compared to nitroxoline ([3]; beagle dogs, dosed at the equivalent amount of nitroxoline in moles): more than five times
- f (%): percentage of total mass of excreted drug versus the dose amount ([3]; individual dogs, oral tablet, 75 mg nitroxoline equivalent): 1.1% and 0.419% and 0.949%
- Total mass of nitroxoline in urine ([3]; individual dogs, oral tablet, 75 mg nitroxoline equivalent, 0-24 hr): 825000 ng and 313943 ng and 711720 ng
- Mass of nitroxoline in urine, 0-2 hr ([3]; individual dogs, oral tablet, 75 mg nitroxoline equivalent, collection 0-2 hr): 0 ng and 15153 ng and 163020 ng
- Mass of nitroxoline in urine, 2-4 hr ([3]; individual dogs, oral tablet, 75 mg nitroxoline equivalent, collection 2-4 hr): 0 ng and 130150 ng and 219300 ng
- Mass of nitroxoline in urine, 4-6 hr ([3]; individual dogs, oral tablet, 75 mg nitroxoline equivalent, collection 4-6 hr): 0 ng (2×) and 96900 ng
- Mass of nitroxoline in urine, 6-8 hr ([3]; individual dogs, oral tablet, 75 mg nitroxoline equivalent, collection 6-8 hr): 0 ng (2×) and 22165 ng
- Mass of nitroxoline in urine, 8-24 hr ([3]; individual dogs, oral tablet, 75 mg nitroxoline equivalent, collection 8-24 hr): 825000 ng and 49575 ng and 329400 ng
- f (%): percentage of total mass of excreted drug versus the dose amount, Mean ([3]; mean of dogs, oral tablet, 75 mg nitroxoline equivalent): 0.823%
- Total mass of nitroxoline in urine, Mean ([3]; mean of dogs, oral tablet, 75 mg nitroxoline equivalent, 0-24 hr): 616888 ng
- Mass of nitroxoline in urine, 0-2 hr, Mean ([3]; mean of dogs, oral tablet, 75 mg nitroxoline equivalent, collection 0-2 hr): 89086 ng
- Mass of nitroxoline in urine, 2-4 hr, Mean ([3]; mean of dogs, oral tablet, 75 mg nitroxoline equivalent, collection 2-4 hr): 174725 ng
- Mass of nitroxoline in urine, 4-6 hr, Mean ([3]; mean of dogs, oral tablet, 75 mg nitroxoline equivalent, collection 4-6 hr): 96900 ng
- Mass of nitroxoline in urine, 6-8 hr, Mean ([3]; mean of dogs, oral tablet, 75 mg nitroxoline equivalent, collection 6-8 hr): 22165 ng
- Mass of nitroxoline in urine, 8-24 hr, Mean ([3]; mean of dogs, oral tablet, 75 mg nitroxoline equivalent, collection 8-24 hr): 401325 ng
Structure (SMILES): O=[N+]([O-])c1ccc(O)c2ncccc12 [APL-1092, Nitroxoline Lysine Salt]
- Total mass of nitroxoline in urine and wash ([2]; individual mice, oral, equivalent of 41.8 mg/Kg nitroxoline, 0-24 hr, 41.8 mg/kg): 174297 ng and 118681 ng and 56516 ng and 155110 ng and 87439 ng and 143396 ng
- f (%): percentage of total mass of excreted drug versus the dose amount ([2]; individual mice, oral, equivalent of 41.8 mg/Kg nitroxoline, 41.8 mg/kg): 34.7% and 22.3% and 11.1% and 28.4% and 17.7% and 19.8%
- Mass of nitroxoline, 0~2 wash ([2]; individual mice, oral, equivalent of 41.8 mg/Kg nitroxoline, cage wash 0~2 hr, 41.8 mg/kg): 113000 ng and 25240 ng and 15015 ng and 25300 ng and 47650 ng and 19320 ng
- Mass of nitroxoline, 2~6 wash ([2]; individual mice, oral, equivalent of 41.8 mg/Kg nitroxoline, cage wash 2~6 hr, 41.8 mg/kg): 6055 ng and 3618 ng and 8190 ng and 4635 ng and 4868 ng and 1960 ng
- Mass of nitroxoline, 6~24 wash ([2]; individual mice, oral, equivalent of 41.8 mg/Kg nitroxoline, cage wash 6~24 hr, 41.8 mg/kg): 296 ng and 158 ng and 246 ng and 286 ng and 227 ng and 190 ng
- Mass of nitroxoline in urine, 0-2 hr ([2]; individual mice, oral, equivalent of 41.8 mg/Kg nitroxoline, urine 0-2 hr, 41.8 mg/kg): 51600 ng and 84300 ng and 31970 ng and 107380 ng and 31122 ng and 120000 ng
- Mass of nitroxoline in urine, 2-6 hr ([2]; individual mice, oral, equivalent of 41.8 mg/Kg nitroxoline, urine 2-6 hr, 41.8 mg/kg): 3308.5 ng and 5263.2 ng and 1084 ng and 17458 ng and 3500 ng and 1846 ng
- Mass of nitroxoline in urine, 6-24 hr ([2]; individual mice, oral, equivalent of 41.8 mg/Kg nitroxoline, urine 6-24 hr, 41.8 mg/kg): 37.5 ng and 101.64 ng and 10.4 ng and 51 ng and 73 ng and 79.6 ng
